Data: US4801616A, “Diphenylmethanone compounds and anti-inflammatory use thereof” (Eli Lilly and Company, priority 1986, dated 1989)

molecular target: T1, 5-lipoxygenase (Cavia porcellus, UniProt A0A286X958); experiment: 5-Lipoxygenase (5-LPO) Assay, inhibition of 5-HETE formation in PMNL sonicate supernatant; format: biochemical, guinea pig; conditions: guinea pig PMNL sonicate supernatant, 37° C., 5 μM 14C-arachidonic acid
T1 construct: incubating 0.2 ml of the supernatant obtained from the PMNL sonicate with the test compound; from tissue; host or cells: casein-elicited guinea pig peritoneal polymorphonuclear leukocytes (PMNL, more than 95 percent of the cells), sonicated, 30,000 x g supernatant
T1 sequence (A0A286X958 1-674): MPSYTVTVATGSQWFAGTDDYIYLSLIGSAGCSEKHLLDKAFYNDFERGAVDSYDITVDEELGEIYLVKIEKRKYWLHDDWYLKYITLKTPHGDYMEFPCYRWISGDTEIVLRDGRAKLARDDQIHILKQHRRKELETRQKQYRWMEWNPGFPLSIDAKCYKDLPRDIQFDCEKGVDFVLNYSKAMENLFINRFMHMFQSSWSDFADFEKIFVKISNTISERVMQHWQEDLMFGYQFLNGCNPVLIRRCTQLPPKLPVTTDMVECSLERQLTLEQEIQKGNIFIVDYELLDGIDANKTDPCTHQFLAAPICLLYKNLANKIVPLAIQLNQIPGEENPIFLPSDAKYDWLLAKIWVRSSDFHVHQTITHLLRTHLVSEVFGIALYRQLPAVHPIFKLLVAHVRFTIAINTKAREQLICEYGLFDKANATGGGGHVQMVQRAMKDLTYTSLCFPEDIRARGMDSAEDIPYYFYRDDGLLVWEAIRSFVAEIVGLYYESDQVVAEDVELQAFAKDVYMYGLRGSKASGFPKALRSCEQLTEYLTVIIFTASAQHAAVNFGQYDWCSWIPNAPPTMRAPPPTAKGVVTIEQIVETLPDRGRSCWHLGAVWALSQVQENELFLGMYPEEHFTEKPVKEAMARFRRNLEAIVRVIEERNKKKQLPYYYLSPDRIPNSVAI
Description: 5-Lipoxygenase (5-LPO) Assay
Ten milliliters of a 2% casein solution were injected intraperitoneally into guinea pigs weighing 250-300 gm. After 16-18 hours, the guinea pigs were killed by suffocation in a carbon dioxide chamber. The peritoneal cavity was infused with 70 ml of saline and 40-50 ml of the fluid were recovered from the cavity. After centrifugation, cell pellets were washed twice in Hank's balanced salt solution (HBSS) without calcium ion.
The cells were then suspended in 5 ml of sodium phosphate buffer, pH 7.1 containing 1 mM EDTA, and 0.1% gelatin. About 20-30×10^7 cells were obtained from one guinea pig.
The PMNL suspension was disrupted by five 1/2 second pulse sonications at the setting of 3 in a Branson Sonifier, Model 350, equipped with a microtip. The sonicates were combined and centrifuged at 30,000× g for 10 minutes. The supernatant was kept frozen at -70° C. until use.
Enzyme activity was determined by assaying for 5-HETE formation by first incubating 0.2 ml of the supernatant obtained from the PMNL sonicate with the test compound, 1 mM CaCl2, 2 mM ATP, and 1 mM GSH for 5 minutes at 37° C. The mixture is treated with 5 μM ^14 C-arachidonicacid and incubated at 37° C. an additional 10 minutes. The enzyme reaction was then stopped by the addition of 10 μl of 1M citric acid and 10μl of an alcohol solution containing 20 mg/ml each of indomethacin and butylated hydroxyanisole (BHA). The reaction mixture was spotted (50 μl on a silica gel plate (Baker TLC plate S1250-PA-19C) and subjected to TLC in a solvent system of ethyl acetate/2,2,4-trimethylpentane/glacial acetic acid/water (90:50:20:100).
The radioactivity of the arachidonic acid and its metabolites (5-HETE and LTB4) was visualized from a developed x-ray film which had been exposed to the TLC plate 1-2 days. The amount of 5-HETE formed was quantitated by scraping the silica gel area corresponding to the spot on the x-ray film, and the radioactivity determined in a Isocap/300 liquid scintillation counter (Searle Analytic, Inc.).
The percent inhibition of the formation of 5-HETE was determined for each concentration of test compound tested as compared to a control experiment wherein no test compound was added. The concentration and percent inhibition values were plotted on semi log paper and the concentration in which formation of 5-HETE is inhibited by 50% (IC50) was determined by interpolation.

Row | IC50 [µM] | SMILES
1 | 2.83 | CCCc1c(OCCCCC#N)ccc(C(=O)c2ccccc2O)c1O [Example 11, 5-[3-Hydroxy-4-(2-hydroxybenzoyl)-2-propylphenoxy]pentanenitrile]
2 | 11.8 | CCCc1c(OCCCCCCc2nnn[nH]2)ccc(C(=O)c2ccccc2O)c1O [Example 25, (2-Hydroxyphenyl)[2-hydroxy-3-propyl-4-([6-(1H-tetrazol-5-yl)hexyl]oxy)phenyl]methanone]

Further lines, the molecule ahead of its results:

Row | SMILES | IC50 [µM]
3 | CCCc1c(OCCCCCCCCc2nnn[nH]2)ccc(C(=O)c2ccccc2O)c1O [Example 28, (2-Hydroxyphenyl)[2-hydroxy-3-propyl-4-([8-(1H-tetrazol-5-yl)octyl]oxy)phenyl]methanone] | 1.33
4 | CCCc1c(OCCCCc2nnn[nH]2)ccc(C(=O)c2ccccc2O)c1O [Example 26, (2-Hydroxyphenyl)(2-hydroxy-3-propyl-4[4-(1H-tetrazol-5-yl)butoxy]phenyl)methanone] | 1.26
5 | COc1ccccc1C(=O)c1ccc(OC)c(C)c1O [Example 9, (2-hydroxy-4-methoxy-3-methylphenyl)(2-methoxyphenyl)methanone] | 3.67
6 | CCCc1c(OCCCCc2nnn[nH]2)ccc(C(=O)c2ccccc2OC)c1O [Example 23, (2-Hydroxy-3-propyl-4-[4-(1H-tetrazol-5-yl)butoxy]phenyl)(2-methoxyphenyl)methanone] | 1.71
7 | CCCc1c(O)ccc(C(=O)c2ccccc2O)c1O [Example 4, (2,4-Dihydroxy-3-propylphenyl)(2hydroxyphenyl)methanone] | 5.88

same assay, conditions: percent inhibition at 10 μg/ml

Row | inhibition at 10 µg/mL [%] | SMILES
8 | 37 | CCCc1c(OCCCCC(=O)O)ccc(C(=O)c2ccccc2O)c1O [Example 30, 5-[3-Hydroxy-4-(2-hydroxybenzoyl)-2-propylphenoxy]pentanoic acid]
